Source: patent EP0315434A2, “Pyridoxal hydrazone derivatives their production and use and pharmaceutical compositions containing the same” (YISSUM RESEARCH DEVELOPMENT COMPANY OF THE HEBREW …, priority 1987, dated 1989)
Like-named read-outs stand apart in the source and are kept apart here.

What was measured:
[1] = Mobilization of iron from hepatic parenchymal stores in hypertransfused rats labelled with ⁵⁹Fe-ferritin; format: in vivo
Procedure: In each case, 40 mg of each compound was administered per animal in a single subcutaneous injection.
In vivo studies of chelating efficiency were performed in two models: (a) normal rats injected i.p. with 10 mg of either desferrioxamine B (DF), PIH of the prior art, PPH of Example 4 or PPHE from Example 5 labelled in vitro with ⁵⁹Fe; and (b) hypertransfused rats receiving twice 4 ml/100gm packed RBC intravenously 5 and 3 days prior to study (hematocrit 68%) and labelled with ⁵⁹Fe-ferritin injected i.v. 24h prior to iron chelating therapy as described previously. Drugs to be tested in the ⁵⁹Fe-ferritin model were given either by i.p. injection or by gastric tube at a dose of 40 mg per animal. Radioiron excretion and organ distribution were determined after 4 days
The radioactivity of spleen, weighed portions of the liver, and 1 ml samples of blood were determined in an automatic well type scintillation counter (Packard Autogamma Model 5360 Scintillation spectrometer). Spleen and kidney were counted as whole organs.
Whole body counts were performed in a small animal counter (Packard Model 446 Armac) scintillation detector. The excretion of radioiron following ⁵⁹Fe labelling was measured in animals confined to solitary metabolic cages with stainless steel grid bottoms, and stool and urine were collected separately.

[2] = test system: chloroquine-resistant strain of P. falciparum (FCR-3)
Procedure: Cultures of a chloroquine-resistant strain of P. falciparum (FCR-3), cultivated in human erythrocytes (a technique widely used at the Kuvin Centre, Hebrew University Hadassah Medical School), were suspended in solutions containing chelators and then cultured for 3 days. Growth of parasites was determined by either slide counts or by incorporation of ³H-hypoxanthine. The parasite growth was monitored by microscopic slide counts. […]

[3] = Fate of ⁵⁹Fe tracer incubated with chelator and injected into normal rats (radioiron distribution and excretion); format: in vivo; details: for Radioiron Distribution in % Feces / Radioiron Distribution in % Total excretion / Radioiron Distribution in % Urine / Radioiron Distribution in % Blood / Radioiron Distribution in % Liver / Radioiron Distribution in % Spleen: 10 mg chelator with ⁵⁹Fe, subcutaneous, normal rats; for Radioiron Distribution in % Feces / Radioiron Distribution in % Total excretion / Radioiron Distribution in % Urine: cumulative within 4 days; for Radioiron Distribution in % Blood / Radioiron Distribution in % Liver / Radioiron Distribution in % Spleen: within 4 days; for TOTAL EXCRETION OF RADIO-IRON IN RATS %: as in Table 1
Procedure: Table 1 describes the fate of ⁵⁹Fe tracer reincubated […] with 10 mg of some of the above iron chelators and then injected subcutaneously to groups of 4 normal rats. Numbers represent mean cumulative radioiron excretion within 4 days of injection. For comparison, spontaneous excretion of radioiron and the excretion of desferrioxamine (DF) bound radioiron are also given. […]
Spleen and kidney were counted as whole organs.
The excretion of radioiron following ⁵⁹Fe labelling was measured in animals confined to solitary metabolic cages with stainless steel grid bottoms, and stool and urine were collected separately.

[4] = Iron chelation in H₂O (spectrophotometric, apparent K), ferrous ions; format: physicochemical
[5] = rats
[6] = target: T1, Ribonucleoside Diphosphate Reductase (RdR) (Homo sapiens, UniProt P31350); test: Inhibition of ribonucleotide diphosphate reductase; format: biochemical
T1 sequence (P31350 1-389): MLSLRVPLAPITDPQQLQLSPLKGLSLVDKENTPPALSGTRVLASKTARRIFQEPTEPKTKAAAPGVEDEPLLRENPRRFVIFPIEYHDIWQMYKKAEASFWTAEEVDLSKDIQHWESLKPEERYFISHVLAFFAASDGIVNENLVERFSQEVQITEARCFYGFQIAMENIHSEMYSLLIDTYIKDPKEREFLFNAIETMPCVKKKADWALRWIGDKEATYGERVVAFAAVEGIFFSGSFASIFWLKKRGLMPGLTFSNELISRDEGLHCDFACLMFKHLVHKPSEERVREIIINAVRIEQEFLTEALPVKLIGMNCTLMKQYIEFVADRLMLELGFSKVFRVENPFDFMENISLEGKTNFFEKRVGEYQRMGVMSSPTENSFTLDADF

Lewis lung carcinoma = test: Inhibition of Lewis lung carcinoma (primary tumor and metastases); format: in vivo; details: dose 1.25 mg/kg
From the text: It becomes possible also to look at the ability of one of the compounds (Ex. 1) to inhibit the growth of Lewis lung carcinoma. With a view to possible mechanisms we employed the well-established anti-cancer antibiotics (a) bleomycin, and (b) daunorubicin, as reference compounds.

[7] = 40 mg i.p., hypertransfused rats, 4 days
[8] = hypertransfused rats, 40 mg per animal, after 4 days, Desferral i.p., route not printed for Ex. 4 and Ex. 5, mean ± SD
[9] = oral administration of 40 mg, hypertransfused rats
[10] = molar concentration 2 x 10⁻⁵, cultured 3 days

| Molecule | INHIBITION OF GROWTH OF DRUG-RESISTANT STRAIN OF P. falciparum % INHIBITION [2, 10] [%] | Radioiron Distribution in % Feces [3] [%] | Radioiron Distribution in % Total excretion [3] [%] | Radioiron Distribution in % Urine [3] [%] | Radioiron Distribution in % Blood [3] [%] | Radioiron Distribution in % Liver [3] [%] | Radioiron Distribution in % Spleen [3] [%] | TOTAL EXCRETION OF RADIO-IRON IN RATS % [3] [%] | Inhibition of Ribonucleoside Diphosphate Reductase (RdR) % ([6]; dose 1 x 10⁻⁵ M) [%] | Inhibition of Ribonucleoside Diphosphate Reductase (RdR) % ([6]; dose 10 x 10⁻⁵ M) [%] | Inhibition of Ribonucleoside Diphosphate Reductase (RdR) % ([6]; dose 100 x 10⁻⁵ M) [%] | other results |
| --- | --- | --- | --- | --- | --- | --- | --- | --- | --- | --- | --- | --- |
| CCOC(=O)[n+]1cc(CO)c(C=NNc2ncccn2)c(O)c1C [Ex. 5, 1-(N-ethoxycarbonylpyridoxylidenium]-2-[2′-pyrimidyl] hydrazine] | 90.3 | 67.3±2.4 | 96.2±3.4 | 28.9±1.0 | 4.2±0.2 | 2.9±0.2 | 0.06±0.03 | 96.2± 3.4 | – | – | – | excretion of the radioiron label in the stool [1, 7]: 72%; reduction in hepatocellular (hepatic) radioactivity [1, 7]: 69%; ORGAN DISTRIBUTION AND EXCRETION OF ⁵⁹Fe-FERRITIN (%) BLOOD [1, 8]: 3.1±0.6%; ORGAN DISTRIBUTION AND EXCRETION OF ⁵⁹Fe-FERRITIN (%) LIVER [1, 8]: 63.8± 8.7%; ORGAN DISTRIBUTION AND EXCRETION OF ⁵⁹Fe-FERRITIN (%) STOOL [1, 8]: 27.6±1.3%; ORGAN DISTRIBUTION AND EXCRETION OF ⁵⁹Fe-FERRITIN (%) TOTAL EXCRETION [1, 8]: 28.1±1.3%; ORGAN DISTRIBUTION AND EXCRETION OF ⁵⁹Fe-FERRITIN (%) URINE [1, 8]: 0.5±0%; greater oral chelating efficiency than an identical dose of parenteral DF ([1]; oral 40 mg versus parenteral DF 40 mg): roughly 20%; excretion of radioiron [1, 9]: 28%; reduction in hepatic ⁵⁹Fe [1, 9]: 27%; effectiveness in the chelation test relative to prior art PIH ([4]; compared with PIH): about sixty times more effective; higher affinity for ferrous than for ferric ions ([4]; ferrous versus ferric): ~30 fold; tolerance ([5]; 100 mg/kg/d by oral or parenteral administration): well tolerated; biochemical tests of hepatic and renal function, complete blood counts, hepatic and renal histology ([5]; after 3 months of continuous treatment): no indications of toxicity |
| Cc1ncc(CO)c(C=NNc2cnccn2)c1O [Ex. 6, 1-[2′-pyrazyl]-2-[pyridoxylidene] hydrazine] | – | – | – | – | – | – | – | – | 64 | 81 | 83 | – |
| Cc1ncc(CO)c(C=NNc2ccccn2)c1O.O=S(=O)([O-])[O-].[Cu+2] [Ex. 7] | – | – | – | – | – | – | – | – | – | – | – | INHIBITION OF GROWTH OF DRUG-RESISTANT STRAIN OF P. falciparum % INHIBITION ([2]; molar concentration 1 x 10⁻¹², after 2 hours of exposure): 100 ^(**) % |
| Cc1ncc(CO)c(C=NNC(=O)c2cc[n+](C)cc2)c1O.[I-] [Ex. A, 1-[pyridoxylidene]-2-[N-methylisonicotinoylium] hydrazine iodide, reference compound] | 16.6 | 22.7±1.1 | 26.4±1.3 | 3.7±0.2 | 33.3±2.1 | 12.8±0.2 | 0.56±0.02 | 26.4± 1.3 | – | – | – | – |
| NC(=O)NO [Hydroxyurea, reference compound] | – | – | – | – | – | – | – | – | 15 | 37 | 73 | – |
| bleomycin [reference compound] | – | – | – | – | – | – | – | – | – | – | – | Inhibition of Lewis Carcinoma Metastases % (Lewis lung carcinoma): 48%; Inhibition of Lewis Carcinoma Primary Tumor % (Lewis lung carcinoma): 24% |
